Patent publication US20230085307A1, “PYRIDAZINONE COMPOUND AND HERBICIDE” (NISSAN CHEMICAL CORPORATION, priority 2019, published 2023)

Experiments:
[1] = system: wild oat; assay: Test Example 5: herbicidal effect by foliage application, plastic box (Table 20, symbol I); type: in vivo, wild oat (Avena fatua); settings: foliage application, 320 g/ha, three weeks after application
In short: (§1)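 Foliar spray test: emulsion formulation diluted in water to a set application rate, sprayed onto 14-day-old plants raised in diluvial soil at 25° C to 30° C under glass. Both herbicidal effect and crop effect rated visually three weeks later.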

[2] = system: green foxtail; assay: Test Example 5: herbicidal effect by foliage application, plastic box (Table 20, symbol G); type: in vivo, green foxtail (Setaria viridis); settings: foliage application, 320 g/ha, three weeks after application
In short: as §1

[3] = system: Japanese bulrush; assay: Test Example 1: herbicidal activity, application before weed generation under submerged conditions (Table 16, symbol B); type: in vivo, Japanese bulrush (Schoenoplectus juncoides); settings: amount of applied herbicide 320 g/ha
In short: (§2)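 Emulsion formulation, water-diluted to set dose, was put onto the flooded surface (4 cm depth, alluvial soil) the same day weeds were sown and 2.5-leaf rice transplanted. After 3 weeks at 25-30 °C under glass, each species was rated 0 (≤5% kill) to 5 (≥90% kill).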

[4] = system: southern crabgrass; assay: Test Example 5: herbicidal effect by foliage application, plastic box (Table 20, symbol F); type: in vivo, southern crabgrass (Digitaria ciliaris); settings: foliage application, 320 g/ha, three weeks after application
In short: as §1

[5] = system: windgrass; assay: Test Example 4: herbicidal effect by soil treatment (Table 19, symbol L); type: in vivo, windgrass (Apera spica-venti); settings: amount of applied herbicide 320 g/ha
In short: (§3)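 Step 1: sow seeds in sterilized diluvial soil, cover ~1.5 cm. Step 2: spray diluted emulsion onto soil surface at predetermined rate. Step 3: greenhouse, 25–30° C, three weeks. Step 4: grade effect on each plant by earlier criteria.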

[6] = system: Italian ryegrass; assay: Test Example 4: herbicidal effect by soil treatment (Table 19, symbol K); type: in vivo, Italian ryegrass (Lolium multiflorum); settings: amount of applied herbicide 320 g/ha
In short: as §3

[7] = system: late watergrass; assay: Test Example 1: herbicidal activity, application before weed generation under submerged conditions (Table 16, symbol A); type: in vivo, late watergrass (Echinochloa oryzicola); settings: amount of applied herbicide 320 g/ha
In short: as §2

[8] = system: windgrass; assay: Test Example 5: herbicidal effect by foliage application, plastic box (Table 20, symbol L); type: in vivo, windgrass (Apera spica-venti); settings: foliage application, 320 g/ha, three weeks after application
In short: as §1

[9] = system: velvetleaf; assay: Test Example 4: herbicidal effect by soil treatment (Table 19, symbol M); type: in vivo, velvetleaf (Abutilon theophrasti); settings: amount of applied herbicide 320 g/ha
In short: as §3

[10] = system: barnyard grass; assay: Test Example 5: herbicidal effect by foliage application, plastic box (Table 20, symbol H); type: in vivo, barnyard grass (Echinochloa crus-galli); settings: foliage application, 320 g/ha, three weeks after application
In short: as §1

[11] = system: rice flat sedge; assay: Test Example 3: herbicidal effect by foliage application, Wagner pot (Table 18, symbol E); type: in vivo, rice flat sedge (Cyperus iria); settings: 320 g/ha
In short: (§4)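 Plants were sown in alluvial soil held under 0.1–0.5 cm standing water and grown 14 days in a greenhouse at 25–30 °C. An emulsifiable formulation, water-diluted to the set dose, was then sprayed onto the foliage, and effects were scored three weeks later using previously defined criteria.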

[12] = system: redroot pigweed; assay: Test Example 5: herbicidal effect by foliage application, plastic box (Table 20, symbol N); type: in vivo, redroot pigweed (Amaranthus retroflexus); settings: foliage application, 320 g/ha, three weeks after application
In short: as §1

[13] = system: barnyard grass; assay: Test Example 3: herbicidal effect by foliage application, Wagner pot (Table 18, symbol H); type: in vivo, barnyard grass (Echinochloa crus-galli); settings: 320 g/ha
In short: as §4

[14] = system: velvetleaf; assay: Test Example 5: herbicidal effect by foliage application, plastic box (Table 20, symbol M); type: in vivo, velvetleaf (Abutilon theophrasti); settings: foliage application, 320 g/ha, three weeks after application
In short: as §1

[15] = system: blackgrass; assay: Test Example 5: herbicidal effect by foliage application, plastic box (Table 20, symbol J); type: in vivo, blackgrass (Alopecurus myosuroides); settings: foliage application, 320 g/ha, three weeks after application
In short: as §1

[16] = system: southern crabgrass; assay: Test Example 4: herbicidal effect by soil treatment (Table 19, symbol F); type: in vivo, southern crabgrass (Digitaria ciliaris); settings: amount of applied herbicide 320 g/ha
In short: as §3

[17] = system: green foxtail; assay: Test Example 4: herbicidal effect by soil treatment (Table 19, symbol G); type: in vivo, green foxtail (Setaria viridis); settings: amount of applied herbicide 320 g/ha
In short: as §3

[18] = system: persian speedwell; assay: Test Example 4: herbicidal effect by soil treatment (Table 19, symbol R); type: in vivo, Persian speedwell (Veronica persica); settings: amount of applied herbicide 320 g/ha
In short: as §3

COc1ccccc1-c1sc2cc(OC(C)C)ccc2c1-c1c(O)c(C)nn(C)c1=O [3-101]
I: wild oat, herbicidal effect grade [1]: 4 (Herbicidal rate of 70% or more and less than 90%) | G: green foxtail, herbicidal effect grade [2]: 5 (Herbicidal rate of 90% or more (almost completely withered)) | Herbicidal effect, B: Japanese bulrush [3]: 5 (Herbicidal rate of 90% or more (almost completely withered)) | F: southern crabgrass, herbicidal effect grade [4]: 5 (Herbicidal rate of 90% or more (almost completely withered)) | L: windgrass, herbicidal effect grade [5]: 4 (Herbicidal rate of 70% or more and less than 90%) | K: Italian ryegrass, herbicidal effect grade [6]: 5 (Herbicidal rate of 90% or more (almost completely withered)) | Herbicidal effect, A: late watergrass [7]: 5 (Herbicidal rate of 90% or more (almost completely withered)) | L: windgrass, herbicidal effect grade [8]: 5 (Herbicidal rate of 90% or more (almost completely withered)) | M: velvetleaf, herbicidal effect grade [9]: 3 (Herbicidal rate of 40% or more and less than 70%) | H: barnyard grass, herbicidal effect grade [10]: 5 (Herbicidal rate of 90% or more (almost completely withered)) | herbicidal effect on rice flat sedge (E) [11]: 5 (Herbicidal rate of 90% or more (almost completely withered)) | N: redroot pigweed, herbicidal effect grade [12]: 5 (Herbicidal rate of 90% or more (almost completely withered)) | herbicidal effect on barnyard grass (H) [13]: 5 (Herbicidal rate of 90% or more (almost completely withered)) | M: velvetleaf, herbicidal effect grade [14]: 5 (Herbicidal rate of 90% or more (almost completely withered)) | J: blackgrass, herbicidal effect grade [15]: 5 (Herbicidal rate of 90% or more (almost completely withered)) | F: southern crabgrass, herbicidal effect grade [16]: 2 (Herbicidal rate of 20% or more and less than 40%) | G: green foxtail, herbicidal effect grade [17]: 5 (Herbicidal rate of 90% or more (almost completely withered)) | R: persian speedwell, herbicidal effect grade [18]: 4 (Herbicidal rate of 70% or more and less than 90%)

CCCCOc1ccc2c(-c3c(O)c(C)nn(C)c3=O)c(-c3ccccc3OC)sc2c1 [3-105]
I: wild oat, herbicidal effect grade [1]: 4 (Herbicidal rate of 70% or more and less than 90%) | G: green foxtail, herbicidal effect grade [2]: 5 (Herbicidal rate of 90% or more (almost completely withered)) | Herbicidal effect, B: Japanese bulrush [3]: 5 (Herbicidal rate of 90% or more (almost completely withered)) | F: southern crabgrass, herbicidal effect grade [4]: 5 (Herbicidal rate of 90% or more (almost completely withered)) | L: windgrass, herbicidal effect grade [5]: 4 (Herbicidal rate of 70% or more and less than 90%) | K: Italian ryegrass, herbicidal effect grade [6]: 5 (Herbicidal rate of 90% or more (almost completely withered)) | Herbicidal effect, A: late watergrass [7]: 5 (Herbicidal rate of 90% or more (almost completely withered)) | L: windgrass, herbicidal effect grade [8]: 5 (Herbicidal rate of 90% or more (almost completely withered)) | M: velvetleaf, herbicidal effect grade [9]: 0 (Herbicidal rate of 5% or less (almost no effect)) | H: barnyard grass, herbicidal effect grade [10]: 4 (Herbicidal rate of 70% or more and less than 90%) | herbicidal effect on rice flat sedge (E) [11]: 4 (Herbicidal rate of 70% or more and less than 90%) | N: redroot pigweed, herbicidal effect grade [12]: 5 (Herbicidal rate of 90% or more (almost completely withered)) | herbicidal effect on barnyard grass (H) [13]: 5 (Herbicidal rate of 90% or more (almost completely withered)) | M: velvetleaf, herbicidal effect grade [14]: 5 (Herbicidal rate of 90% or more (almost completely withered)) | J: blackgrass, herbicidal effect grade [15]: 5 (Herbicidal rate of 90% or more (almost completely withered)) | F: southern crabgrass, herbicidal effect grade [16]: 0 (Herbicidal rate of 5% or less (almost no effect)) | G: green foxtail, herbicidal effect grade [17]: 3 (Herbicidal rate of 40% or more and less than 70%) | R: persian speedwell, herbicidal effect grade [18]: 5 (Herbicidal rate of 90% or more (almost completely withered))

COc1ccccc1-c1sc2cc(OCC(C)C)ccc2c1-c1c(O)c(C)nn(C)c1=O [3-107]
I: wild oat, herbicidal effect grade [1]: 0 (Herbicidal rate of 5% or less (almost no effect)) | G: green foxtail, herbicidal effect grade [2]: 5 (Herbicidal rate of 90% or more (almost completely withered)) | Herbicidal effect, B: Japanese bulrush [3]: 5 (Herbicidal rate of 90% or more (almost completely withered)) | F: southern crabgrass, herbicidal effect grade [4]: 5 (Herbicidal rate of 90% or more (almost completely withered)) | L: windgrass, herbicidal effect grade [5]: 0 (Herbicidal rate of 5% or less (almost no effect)) | K: Italian ryegrass, herbicidal effect grade [6]: 5 (Herbicidal rate of 90% or more (almost completely withered)) | Herbicidal effect, A: late watergrass [7]: 4 (Herbicidal rate of 70% or more and less than 90%) | L: windgrass, herbicidal effect grade [8]: 5 (Herbicidal rate of 90% or more (almost completely withered)) | M: velvetleaf, herbicidal effect grade [9]: 1 (Herbicidal rate of 5% or more and less than 20%) | H: barnyard grass, herbicidal effect grade [10]: 3 (Herbicidal rate of 40% or more and less than 70%) | herbicidal effect on rice flat sedge (E) [11]: 4 (Herbicidal rate of 70% or more and less than 90%) | N: redroot pigweed, herbicidal effect grade [12]: 5 (Herbicidal rate of 90% or more (almost completely withered)) | herbicidal effect on barnyard grass (H) [13]: 4 (Herbicidal rate of 70% or more and less than 90%) | M: velvetleaf, herbicidal effect grade [14]: 5 (Herbicidal rate of 90% or more (almost completely withered)) | J: blackgrass, herbicidal effect grade [15]: 4 (Herbicidal rate of 70% or more and less than 90%) | F: southern crabgrass, herbicidal effect grade [16]: 3 (Herbicidal rate of 40% or more and less than 70%) | G: green foxtail, herbicidal effect grade [17]: 4 (Herbicidal rate of 70% or more and less than 90%) | R: persian speedwell, herbicidal effect grade [18]: 4 (Herbicidal rate of 70% or more and less than 90%)

CCCCCOc1ccc2c(-c3c(O)c(C)nn(C)c3=O)c(-c3ccccc3OC)sc2c1 [3-108]
I: wild oat, herbicidal effect grade [1]: 0 (Herbicidal rate of 5% or less (almost no effect)) | G: green foxtail, herbicidal effect grade [2]: 3 (Herbicidal rate of 40% or more and less than 70%) | Herbicidal effect, B: Japanese bulrush [3]: 3 (Herbicidal rate of 40% or more and less than 70%) | F: southern crabgrass, herbicidal effect grade [4]: 0 (Herbicidal rate of 5% or less (almost no effect)) | L: windgrass, herbicidal effect grade [5]: 0 (Herbicidal rate of 5% or less (almost no effect)) | K: Italian ryegrass, herbicidal effect grade [6]: 0 (Herbicidal rate of 5% or less (almost no effect)) | Herbicidal effect, A: late watergrass [7]: 3 (Herbicidal rate of 40% or more and less than 70%) | L: windgrass, herbicidal effect grade [8]: 0 (Herbicidal rate of 5% or less (almost no effect)) | M: velvetleaf, herbicidal effect grade [9]: 0 (Herbicidal rate of 5% or less (almost no effect)) | H: barnyard grass, herbicidal effect grade [10]: 0 (Herbicidal rate of 5% or less (almost no effect)) | herbicidal effect on rice flat sedge (E) [11]: 1 (Herbicidal rate of 5% or more and less than 20%) | N: redroot pigweed, herbicidal effect grade [12]: 5 (Herbicidal rate of 90% or more (almost completely withered)) | herbicidal effect on barnyard grass (H) [13]: 3 (Herbicidal rate of 40% or more and less than 70%) | M: velvetleaf, herbicidal effect grade [14]: 2 (Herbicidal rate of 20% or more and less than 40%) | J: blackgrass, herbicidal effect grade [15]: 0 (Herbicidal rate of 5% or less (almost no effect)) | F: southern crabgrass, herbicidal effect grade [16]: 0 (Herbicidal rate of 5% or less (almost no effect)) | G: green foxtail, herbicidal effect grade [17]: 0 (Herbicidal rate of 5% or less (almost no effect)) | R: persian speedwell, herbicidal effect grade [18]: 0 (Herbicidal rate of 5% or less (almost no effect))
